From patent US20250034161A1, “SPIROCYCLIC COMPOUND AS KRAS-G12C INHIBITOR” (Shanghai Euregen Biopharma Co., Ltd., priority 2020, published 2025) come the findings set out here.

One series deals with NCI-H23 (G12C). Description: Cell selectivity test, proliferation inhibition NCI-H23. Format: cell-based. Conditions: Homo sapiens, 72 hours. The text has this:
(§1) • 1. Test purpose: to detect the proliferation inhibition of the test compounds on NCI-H23, NCI-H2122, HCC827, Mia paca2, A549 and SW837 cell lines. • 2. […] No. FND500); Penicillin-streptomycin was purchased from Gibco (Art. No. 15140-122); 0.25% trypsin-ethylenediaminetetraacetic acid digestive juice (Trypsin-EDTA) was purchased from Gibco (Art. No. 25200-072); dimethyl sulfoxide (DMSO) was purchased from Sigma (Art. No. D2650); 96-well cell plate was purchased from Corning (Art. No. 3610); incubator was purchased from NuAire (model number: NU-5700E); Biosafety cabinet was purchased from AuAire (model number: NU-543-600S); Inverted microscope was purchased from Nikon (Art. No. TS-100); Automated cell counter was purchased from Life technologies (model number: Countess II); Microplate reader was purchased from PerkinElmer (model number: Envision); the data processing software was GraphPad Prism 5.0. […]

The subject of a further series is Mia paca2(G12C). As to the kind of experiment: Cell selectivity test, proliferation inhibition Mia paca2. In kind it is cell-based. Conditions: Homo sapiens, MIA PaCa-2, 72 hours.
From the text: as §1

Another series concerns A549(G12S). As to the kind of experiment: Cell selectivity test, proliferation inhibition A549. Conditions: Homo sapiens, 72 hours. Format: cell-based.
From the text: as §1

For series [1], the system named is phosphorylation level of ERK in NCI-H358 cells. As to the kind of experiment: NCI-H358 pERK inhibitory activity (HTRF phospho-ERK). In kind it is cell-based. Conditions: Homo sapiens, 1 hour incubation.
Experimental: Test purpose: to detect the inhibitory effect of the test compound on the phosphorylation level of ERK in NCI-H358 cells. • 2. […] Test method:
NCI-H358 cells suspension was seeded at 80 μL per well in a clear 96-well cell culture plate, with 10000 cells each well. The cell culture plate was placed in an incubator and incubated overnight at 37° C. under 5% CO2. After incubation, the cell supernatant was discarded, 80 μL of PRMI1640 medium containing 0.02% serum was added to each well, and the cell culture plate was placed in an incubator and incubated overnight at 37° C., under 5% CO2. The test compound was diluted with 100% DMSO to 4 mmol/L as the first concentration, and then diluted 5-fold to the 8th concentration using a pipette. 2 μL of compound or DMSO (as negative control) was taken and added with 158 μL of cell culture medium. After mixing evenly, 20 μL of the compound solution was taken and added to corresponding cell plate well. […] After incubation, the signals at 615 nm and 665 nm were read using a multi-label analyzer. The percent inhibition was calculated according to the following formula: Ratio=(signal 665 nm/signal 615 nm)×10000; the percent inhibition=(ratio of test compound-ratio of negative control)/(ratio of blank-ratio of negative control)×100%.
Series [2] can be described thus: Pharmacokinetics study in mice (IV and PO). Conditions: ICR male mice. Format: in vivo. The protocol: Preparation of 0.5% methyl cellulose: 5 g of methyl cellulose were weighed and dissolved in 1000 mL of purified water.
Preparation of oral formulation: a required amount of the test compound was weighed and dissolved in 0.5% methyl cellulose solution to obtain a suspension or solution of 0.5 mg/mL.
Preparation of intravenous injection formulation: a required amount of test compound was weighed, and dissolved in 0.5 mL of dimethyl sulfoxide to prepare a solution of 4 mg/mL. 0.06 mL of the above solution was taken, and 0.12 mL of polyethylene glycol 15 hydroxystearate (solutol) and 1.02 mL of normal saline were added thereto to obtain a solution of 0.2 mg/mL.
Feeding 4 hours after administration.
Sample Collection: blood was collected via the jugular vein or other suitable vein, and 0.03 mL blood was collected at each time point. Samples were placed into tubes containing ethylenediaminetetraacetic acid dipotassium salt and kept on ice before centrifugation. Within 1 hour after blood collection, the blood samples were centrifuged at 2-8° C. and 6800 g for 6 minutes and stored at −80° C. The time points for blood collection were 0.083, 0.25, 0.5, 1, 2, 4, 8 and 24 hours after intravenous and oral administration.

Another series has as its system SW837(G12C). Description: Cell selectivity test, proliferation inhibition SW837. Format: cell-based. The following applies: Homo sapiens, 72 hours.
From the text: as §1

In the next series the test system is HCC827(wt). Description: Cell selectivity test, proliferation inhibition HCC827. In kind it is cell-based. Conditions: Homo sapiens, 72 hours.
From the text: as §1

[3] abbreviates: mouse, plasma, intravenous injection, 1 mg/kg.
[4] abbreviates: mouse, plasma, oral gavage, 5 mg/kg.

Where only a bound is given, the exact number is not on record here.

As usually defined, the IC50 is the concentration that inhibits the measured activity by half. A high value points to weaker potency in that assay. Usually AUC(0-inf) stands for the area under the concentration-time curve extrapolated to infinity. Higher therefore signals high exposure. Usually Cmax stands for the peak of the concentration-time curve. For orientation: half-life means the time in which the quantity being followed falls by half. Read a low half-life as fast loss. Consider `C=CC(=O)N1CCN(c2nc(=O)n(-c3c(C)ccnc3C(C)C)c3nc(-c4c(O)cccc4F)c(F)cc23)[C@@H](C)C1` [AMG510], for which the 50% inhibitory concentration (IC50) was 7.55 nM in the series with NCI-H23 (G12C); 15.7 nM with Mia paca2(G12C); more than 10000 nM with A549(G12S); 88.3 nM in series [1]; 285 nM in the series on SW837(G12C); more than 10000 nM with HCC827(wt). Besides, the F in series [2] (oral gavage, 5 mg/kg) amounted to 0.33%. The AUC(0-inf) in series [2] (setting [3]) worked out at 227 ng·h/mL; in series [2] (setting [4]), 6.12 ng·h/mL. Besides, the maximum concentration (Cmax) was 623 ng/mL in series [2] (setting [3]) and 7.25 ng/mL in series [2] (setting [4]). In addition, in series [2] (setting [3]), the clearance worked out at 74.7 mL/min/kg. In addition, the half-life in series [2] (setting [3]) was 13.2 min; in series [2] (setting [4]), 21.6 min. Moreover, in series [2] (mouse, plasma, intravenous injection, 1 mg/kg, read-out: Vz), the Vd is 1.42 L/kg.
